Target: T1, h-GABAA α2β2γ1 (Homo sapiens, UniProt P47869+Q8N1C3)
T1 sequence (P47869 29-451): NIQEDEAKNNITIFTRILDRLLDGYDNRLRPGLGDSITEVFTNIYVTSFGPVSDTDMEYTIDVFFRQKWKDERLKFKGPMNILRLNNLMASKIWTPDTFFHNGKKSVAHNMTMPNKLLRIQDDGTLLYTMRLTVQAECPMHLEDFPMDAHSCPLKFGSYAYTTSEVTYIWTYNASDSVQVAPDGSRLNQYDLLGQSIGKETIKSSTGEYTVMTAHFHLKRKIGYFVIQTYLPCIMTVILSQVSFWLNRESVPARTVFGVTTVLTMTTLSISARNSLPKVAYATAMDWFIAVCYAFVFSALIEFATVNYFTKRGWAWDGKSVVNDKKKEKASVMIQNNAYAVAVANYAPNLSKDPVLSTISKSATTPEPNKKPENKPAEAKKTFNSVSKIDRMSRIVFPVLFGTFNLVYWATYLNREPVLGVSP
T1 sequence (P47870 25-512 partner limits assumed): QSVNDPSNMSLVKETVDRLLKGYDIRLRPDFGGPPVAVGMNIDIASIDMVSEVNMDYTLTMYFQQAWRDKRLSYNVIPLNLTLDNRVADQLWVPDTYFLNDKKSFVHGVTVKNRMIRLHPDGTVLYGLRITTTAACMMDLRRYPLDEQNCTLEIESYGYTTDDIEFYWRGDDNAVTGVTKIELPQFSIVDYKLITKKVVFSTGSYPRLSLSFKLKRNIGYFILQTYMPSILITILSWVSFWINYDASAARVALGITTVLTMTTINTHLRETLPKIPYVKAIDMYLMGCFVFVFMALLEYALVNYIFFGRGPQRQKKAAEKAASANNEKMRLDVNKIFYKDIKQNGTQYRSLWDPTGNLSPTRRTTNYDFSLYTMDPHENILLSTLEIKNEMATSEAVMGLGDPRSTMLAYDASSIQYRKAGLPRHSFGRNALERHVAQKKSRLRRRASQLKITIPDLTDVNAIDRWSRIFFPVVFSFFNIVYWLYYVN
T1 sequence (Q8N1C3 36-465): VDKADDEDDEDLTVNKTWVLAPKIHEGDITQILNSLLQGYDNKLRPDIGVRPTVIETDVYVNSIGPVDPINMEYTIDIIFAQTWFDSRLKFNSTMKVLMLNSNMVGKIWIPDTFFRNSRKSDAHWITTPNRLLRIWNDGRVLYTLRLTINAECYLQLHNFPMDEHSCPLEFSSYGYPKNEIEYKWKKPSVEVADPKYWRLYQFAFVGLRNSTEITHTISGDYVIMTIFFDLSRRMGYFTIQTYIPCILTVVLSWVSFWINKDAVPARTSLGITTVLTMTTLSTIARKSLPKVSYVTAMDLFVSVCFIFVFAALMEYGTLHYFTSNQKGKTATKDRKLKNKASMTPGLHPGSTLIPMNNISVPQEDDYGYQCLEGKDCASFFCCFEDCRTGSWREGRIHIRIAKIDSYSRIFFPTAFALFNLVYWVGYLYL
Assay: Radioligand binding assay, [3H]RO7239181 competition, HEK293F membranes
Set-up: signal peptide of human GABAA α5 subunit (Met1 to Ser31), replacing the α2 signal peptide (N); expressed in transfected cells; host or cells: HEK293F cells (ThermoFisher R79007), membranes
Method: The affinity of compounds at GABAA γ1 subunit-containing receptors was measured by competition for [^3H]RO7239181 (67.3 Ci/mmol; Roche) binding to membranes from HEK293F cells (ThermoFisher R79007) expressing human (transiently transfected) receptors of composition […], α2β2γ1, α1β2γ1.
Harvested pellets from HEK293F cells expressing the different GABAA receptor subtypes were resuspended in Mannitol Buffer pH 7.2-7.4 (Mannitol 0.29M, Triethylamine 10 mM, Acetic acid 10 mM, EDTA 1 mM plus protease inhibitors (20 tablets Complete, Roche Diagnostics Cat. No. 05 056 489 001 per liter)), washed two times and then resuspended at 1:10 to 1:15 dilution in the same buffer. Cell disruption was performed by stirring the suspension in a Parr vessel #4637 at 435 psi for 15 minutes, and then the suspensions were centrifuged at 1000×g for 15 minutes at 4° C. (Beckman Avanti J-HC; rotor JS-4.2). The supernatant (S1) was transferred in a 21 Schott flask and the pellet (P1) was resuspended with Mannitol Buffer up to 175 ml. The resuspended pellet was transferred into a 250 ml Corning centrifugal beaker and centrifuged at 1500×g for 10 minutes at 4° C. (Beckman Avanti J-HC; rotor JS-4.2). The supernatant (S1) was then transferred in the 21 Schott flask and the pellet was discarded. The supernatants (S1) were centrifuged in 500 ml Beckman polypropylene centrifugal beaker at 15′000×g for 30 minutes at 4° C. (Beckman Avanti J-20 XP; rotor JLA-10.500). The pellet (P2) was resuspended with Mannitol Buffer 1:1 and frozen at −80° C. The supernatant (S2) was centrifuged in 100 ml Beckman polypropylene centrifugal tubes at 48000×g for 50 minutes at 4° C. (Beckman Avanti J-20 XP; rotor JA-18). The supernatant (S3) was discarded and the pellet (P3) was resuspended with 1:1 Mannitol Buffer. The P2 and P3 protein concentration was determined with the BIORAD Standard assay method with bovine serum albumin as standard and measured on the NANO-Drop 1000. The membrane suspension was aliquots (500 μl per tube) and stored at −80° C. until required. Membrane homogenates were resuspended and polytronised (Polytron PT1200E Kinematica AG) in Potassium Phosphate 10 mM, KCl 100 mM binding buffer at pH 7.4 to a final assay concentration determined with a previous experiment.
Assays were incubated to equilibrium for 1 hour at 4° C. and then, membranes were filtered onto unifilter (96-well white microplate with bonded GF/C filters preincubated 20-50 minutes in 0.3% Polyethylenimine) with a Filtermate 196 harvester (Packard BioScience) and washed 4 times with cold Potassium Phosphate 10 mM pH 7.4, KCl 100 mM binding buffer. After drying, filter-retained radioactivity was detected by liquid scintillation counting. Ki values were calculated using Excel-Fit (Microsoft) and are the means of two determinations.

Row | Structure (SMILES) | Ki [nM]
1 | Fc1cccc(F)c1C1=NCc2nnc(-c3cccnn3)n2-c2ccc(I)c(Cl)c21 [Example 39, 7-chloro-6-(2,6-difluorophenyl)-8-iodo-1-pyridazin-3-yl-4H-[1,2,4]triazolo[4,3-a][1,4]benzodiazepine] | 4.2
2 | Fc1cccnc1C1=NCc2nnc(-c3cccnn3)n2-c2ccc(Cl)c(Cl)c21 [Example 54, 7,8-dichloro-6-(3-fluoro-2-pyridyl)-1-pyridazin-3-yl-4H-[1,2,4]triazolo[4,3-a][1,4]benzodiazepine] | 30.2
3 | O=c1[nH]nc2n1-c1ccc(Br)c(Cl)c1C(c1c(F)cccc1F)=NC2 [Example 13, 8-bromo-7-chloro-6-(2,6-difluorophenyl)-2,4-dihydro-[1,2,4]triazolo[4,3-a][1,4]benzodiazepin-1-one] | 6.2
4 | Cc1nnc2n1-c1ccc(Cl)c(Cl)c1C(c1ccccc1F)=NC2 [Example 4, 7,8-dichloro-6-(2-fluorophenyl)-1-methyl-4H-[1,2,4]triazolo[4,3-a][1,4]benzodiazepine] | 65.8
5 | Fc1cccc(F)c1C1=NCc2nnc(-c3cccnn3)n2-c2ccc(Br)c(Cl)c21 [Example 104, 8-bromo-7-chloro-6-(2,6-difluorophenyl)-1-pyridazin-3-yl-4H-[1,2,4]triazolo[4,3-a][1,4]benzodiazepine] | 2.3
6 | Cc1nnc2n1-c1ccc(Br)c(Cl)c1C(c1c(F)cccc1Cl)=NC2 [Example 50, 8-bromo-7-chloro-6-(2-chloro-6-fluoro-phenyl)-1-methyl-4H-[1,2,4]triazolo[4,3-a][1,4]benzodiazepine] | 4.7
7 | Cc1nnc2n1-c1ccc(Br)c(Cl)c1C(c1c(F)cccc1F)=NC2 [Example 1, 8-bromo-7-chloro-6-(2,6-difluorophenyl)-1-methyl-4H-[1,2,4]triazolo[4,3-a][1,4]benzodiazepine] | 8
8 | Fc1ccccc1C1=NCc2nnc(C3CC3)n2-c2ccc(Br)c(Cl)c21 [Example 2, 8-bromo-7-chloro-1-cyclopropyl-6-(2-fluorophenyl)-4H-[1,2,4]triazolo[4,3-a][1,4]benzodiazepine] | 47.9
9 | O=c1[nH]nc2n1-c1ccc(Br)c(Cl)c1C(c1ccccc1F)=NC2 [Example 26, 8-bromo-7-chloro-6-(2-fluorophenyl)-2,4-dihydro-[1,2,4]triazolo[4,3-a][1,4]benzodiazepin-1-one] | 31.6
10 | Clc1cccnc1C1=NCc2nnc(-c3ccncn3)n2-c2ccc(Br)c(Cl)c21 [Example 44, 8-bromo-7-chloro-6-(3-chloro-2-pyridyl)-1-pyrimidin-4-yl-4H-[1,2,4]triazolo[4,3-a][1,4]benzodiazepine] | 9.6
11 | Cc1ccc2c(c1Cl)C(c1c(F)cccc1F)=NCc1nnc(-c3cccnn3)n1-2 [Example 48, 7-chloro-6-(2,6-difluorophenyl)-8-methyl-1-pyridazin-3-yl-4H-[1,2,4]triazolo[4,3-a][1,4]benzodiazepine] | 8.3
12 | Cc1ccc2c(c1Cl)C(c1c(F)cccc1F)=NCc1nncn1-2 [Example 17, 7-chloro-6-(2,6-difluorophenyl)-8-methyl-4H-[1,2,4]triazolo[4,3-a][1,4]benzodiazepine] | 19.8
13 | Fc1cccnc1C1=NCc2nnc(C3CC3)n2-c2ccc(Cl)c(Cl)c21 [Example 65, 7,8-dichloro-1-cyclopropyl-6-(3-fluoro-2-pyridyl)-4H-[1,2,4]triazolo[4,3-a][1,4]benzodiazepine] | 64.9
14 | Fc1cccc(F)c1C1=NCc2nncn2-c2ccc(C(F)(F)F)c(Cl)c21 [Example 37, 7-chloro-6-(2,6-difluorophenyl)-8-(trifluoromethyl)-4H-[1,2,4]triazolo[4,3-a][1,4]benzodiazepine] | 41.4
15 | Fc1ccccc1C1=NCc2nnc(-c3ccncn3)n2-c2ccc(Cl)c(Cl)c21 [Example 18, 7,8-dichloro-6-(2-fluorophenyl)-1-pyrimidin-4-yl-4H-[1,2,4]triazolo[4,3-a][1,4]benzodiazepine] | 21.6
16 | Cc1nnc2n1-c1ccc(C(F)(F)F)c(Cl)c1C(c1ncccc1F)=NC2 [Example 78, 7-chloro-6-(3-fluoro-2-pyridyl)-1-methyl-8-(trifluoromethyl)-4H-[1,2,4]triazolo[4,3-a][1,4]benzodiazepine] | 50.8
17 | COc1nnc2n1-c1ccc(Cl)c(Cl)c1C(c1c(F)cccc1F)=NC2 [Example 90, 7,8-dichloro-6-(2,6-difluorophenyl)-1-methoxy-4H-[1,2,4]triazolo[4,3-a][1,4]benzodiazepine] | 5.8
18 | Cc1nnc2n1-c1ccc(C(F)(F)F)c(Cl)c1C(c1c(F)cccc1F)=NC2 [Example 40, 7-chloro-6-(2,6-difluorophenyl)-1-methyl-8-(trifluoromethyl)-4H-[1,2,4]triazolo[4,3-a][1,4]benzodiazepine] | 26.8
19 | Cc1nnc2n1-c1ccc(Cl)c(Cl)c1C(c1c(F)cccc1F)=NC2 [Example 5, 7,8-dichloro-6-(2,6-difluorophenyl)-1-methyl-4H-[1,2,4]triazolo[4,3-a][1,4]benzodiazepine] | 6.6
20 | Cn1cc(-c2nnc3n2-c2ccc(Cl)c(Cl)c2C(c2ncccc2F)=NC3)cn1 [Example 58, 7,8-dichloro-6-(3-fluoro-2-pyridyl)-1-(1-methylpyrazol-4-yl)-4H-[1,2,4]triazolo[4,3-a][1,4]benzodiazepine] | 33.1
21 | Fc1cccc(F)c1C1=NCc2nnc(-c3ccncn3)n2-c2ccc(Cl)c(Cl)c21 [Example 12, 7,8-dichloro-6-(2,6-difluorophenyl)-1-pyrimidin-4-yl-4H-[1,2,4]triazolo[4,3-a][1,4]benzodiazepine] | 10.4
22 | Cc1nnc2n1-c1ccc(C(C)(F)F)c(Cl)c1C(c1c(F)cccc1F)=NC2 [Example 22, 7-chloro-8-(1,1-difluoroethyl)-6-(2,6-difluorophenyl)-1-methyl-4H-[1,2,4]triazolo[4,3-a][1,4]benzodiazepine] | 37.4

Reference: patent US20230141603A1, “BENZODIAZEPINE DERIVATIVES AS GABA A GAMMA1 PAM” (Hoffmann-La Roche Inc., priority 2021, published 2023)
